Data published in patent US10174013B2, “Benzimidazole derivatives as kinase inhibitors” (SELVITA S.A., priority 2012, dated 2019).
Read-outs that look alike come from different tables or passages of the source. One block for each compound: values may come before it.

Key:
HepG2 cells = assay: Growth inhibition, MTS assay, HepG2; format: cell-based, Human; details: MTS cell viability, read-out: HepG2 ED50
Excerpt: (§1) The following cell lines, were obtained and used in tests as outlined below: • Human myelomonocytic, biphenotypic leukemia MV4-11 cells (harboring a Flt3-ITD mutation); • Human Acute Myeloid Leukemia MOLM16 cells; • Human Acute Myeloid Leukemia MOLM13 cells (harboring a Flt3-ITD mutation); • Human Myeloid Leukemia KG-1 cells; • Human erythroleukemia HEL92 cells; • Human mantle cell lymphoma Jeko-1 cells; • Human hepatocellular carcinoma HepG2 cells; and • Human colon adenocarcinoma SW-480 cells.
(§2) The assays were carried out according to the following protocol, which is described as an example for the MV4-11 cells:
(§3) Ten thousand MV4-11 cells were inoculated into each well of a 96-well microplate (manufactured by Corning Corp.) using Iscove's MDM medium (culture medium) containing 10% fetal calf serum (FCS). The same day, a dimethyl sulfoxide (DMSO) solution of each test compound prepared in a concentration of 10 mmol/L was further diluted with DMSO to the desired concentrations (0.1, 0.5, 1, 2.5, 5 and 10 micromol/L), and the diluted solution was added to each well. The individual wells were further cultured in 5% carbon dioxide at 37° C. for 72 hours. […] Briefly, 10 μl MTS (3-(4,5-Dimethyl-2-thiazolyl)-5-(carboxymethoxyphenyl)-2-(4-sulfophenyl)-2H-tetrazolium was added to each well, and culturing was performed in 5% carbon dioxide at 37° C. for 2 hours. After this incubation and using a microplate spectrophotometer (Synergy 2 multi-mode microplate reader (BioTek)), the absorbance of each well was measured at 490 nm. The value for cells not incubated with a test compound was designated as 100%. By comparing these values with the absorbance difference obtained at the well in which each test compound was added, the cell viability (% viability) after treatment with the test compound was calculated.

DYRK1 = DYRK1 (Homo sapiens (Human), UniProt Q13627); assay: ADP-Glo Kinase Assay, DYRK1; format: biochemical; details: 1 μM compound; for inhibition at 1 µM: read-out: DYRK1A % INH (1 μM)
Protocol: (§4) Compounds of the present invention were tested for their inhibitory activity against Pim-1, Pim-2, Pim-3, Flt3 wt, Flt3 ITD, CDK2/E and DYRK1. The testing of the compounds was carried out using the ADP-Glo™ Kinase Assay from Promega Corporation (Madison, Wis., USA).
(§5) The ADP-Glo™ Kinase Assay is a luminescent ADP detection assay to measure kinase activity by quantifying the amount of ADP produced during a kinase reaction. The kinase assay is performed in kinase assay buffer (5 mM MOPS, pH 7.5, 5 mM MgCl2, 0.4 mM EDTA, 1.5 mM DTT). Test samples initially dissolved in DMSO at 10 mM were diluted with the assay buffer to 1000 nM. A 30 μL volume/well of a mixture of substrates containing ATP (final ATP concentration in each kinase assay was equal to its apparent ATP Km).
(§6) The assay was performed in two steps: first, after the kinase reaction, an equal volume of ADP-Glo™ Reagent was added to terminate the kinase reaction and deplete the remaining ATP. Second, the Kinase Detection Reagent was added to simultaneously convert ADP to ATP and allowed the newly synthesized ATP to be measured using a luciferase/luciferin reaction. The luminescent signal generated was proportional to the ADP concentration produced and was correlated with kinase activity. A microplate spectrophotometer (Synergy 2 multi-mode microplate reader [BioTek]) was used for detecting the luminescence. The data was normalized and the percent of inhibition was obtained according to the following equation: […]

HEL92 cells = assay: Growth inhibition, MTS assay, HEL92; format: cell-based, Human; details: MTS cell viability, read-out: HEL92 ED50
Excerpt: as §1, §2, §3

FLT3wt = FLT3wt (Homo sapiens (Human), UniProt P36888); assay: ADP-Glo Kinase Assay, Flt3 wt; format: biochemical; details: 1 μM compound; for inhibition at 1 µM: read-out: Flt3wt % INH (1 μM)
Chain of FLT3wt (P36888 27-993): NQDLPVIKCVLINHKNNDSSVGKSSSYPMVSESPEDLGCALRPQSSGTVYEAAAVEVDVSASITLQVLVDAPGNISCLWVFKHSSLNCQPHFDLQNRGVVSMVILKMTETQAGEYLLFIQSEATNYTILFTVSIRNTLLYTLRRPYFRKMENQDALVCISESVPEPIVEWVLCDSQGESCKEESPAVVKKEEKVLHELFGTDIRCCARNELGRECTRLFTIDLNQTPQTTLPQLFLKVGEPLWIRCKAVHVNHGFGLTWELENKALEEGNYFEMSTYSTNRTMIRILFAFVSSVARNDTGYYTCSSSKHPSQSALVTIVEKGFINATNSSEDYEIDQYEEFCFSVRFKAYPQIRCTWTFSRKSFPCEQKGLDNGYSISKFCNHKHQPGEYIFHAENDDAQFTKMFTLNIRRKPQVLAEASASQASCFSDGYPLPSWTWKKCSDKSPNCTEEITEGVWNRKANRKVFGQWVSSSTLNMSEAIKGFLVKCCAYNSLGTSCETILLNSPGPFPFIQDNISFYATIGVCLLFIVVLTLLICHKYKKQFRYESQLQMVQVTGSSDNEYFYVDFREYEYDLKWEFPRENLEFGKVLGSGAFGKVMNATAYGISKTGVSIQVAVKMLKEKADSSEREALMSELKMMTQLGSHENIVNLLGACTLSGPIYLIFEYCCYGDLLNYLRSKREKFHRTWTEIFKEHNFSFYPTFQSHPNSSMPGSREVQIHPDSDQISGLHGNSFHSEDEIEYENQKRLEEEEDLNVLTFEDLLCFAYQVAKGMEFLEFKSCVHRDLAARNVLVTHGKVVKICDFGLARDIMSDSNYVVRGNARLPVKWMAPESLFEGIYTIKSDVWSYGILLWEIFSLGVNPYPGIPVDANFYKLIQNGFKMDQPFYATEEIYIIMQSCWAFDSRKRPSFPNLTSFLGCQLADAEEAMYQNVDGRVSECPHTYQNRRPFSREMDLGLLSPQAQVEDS
Protocol: as §4, §5, §6

Pim-1 = Pim-1 (Homo sapiens (Human), UniProt P11309); assay: ADP-Glo Kinase Assay, Pim-1; format: biochemical; details: 1 μM compound; for inhibition at 1 µM: read-out: Pim-1 % INH (1 μM)
Chain of Pim-1 (P11309 whole entry): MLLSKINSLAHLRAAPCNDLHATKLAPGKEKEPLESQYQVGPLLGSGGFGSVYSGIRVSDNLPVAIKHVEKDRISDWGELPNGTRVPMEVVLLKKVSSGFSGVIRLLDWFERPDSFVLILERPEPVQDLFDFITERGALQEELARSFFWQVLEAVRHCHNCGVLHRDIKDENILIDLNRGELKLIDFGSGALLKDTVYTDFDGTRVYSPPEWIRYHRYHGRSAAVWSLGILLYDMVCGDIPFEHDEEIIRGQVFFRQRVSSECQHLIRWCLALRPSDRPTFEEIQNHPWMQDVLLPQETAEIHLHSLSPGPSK
Protocol: as §4, §5, §6

MV4-11 cells = assay: Growth inhibition, MTS assay, MV4-11; format: cell-based, Human; details: MTS cell viability, read-out: MV4-11 ED50
Excerpt: as §1, §2, §3

IC50 (HepG2 cells; Homo sapiens, HepG2, 72 h): 0.2 µM
inhibition at 1 µM (DYRK1): > 95%
inhibition at 1 µM (FLT3wt): 57%
inhibition at 1 µM (Pim-1): > 95%
IC50 (MV4-11 cells; Homo sapiens, MV4-11, 72 h): 0.1 µM
Compound: CCn1c(N2CCNC[C@@H]2C)nc2c(C#N)c(Br)c(Br)cc21 [Example 1DP]
IC50 (HEL92 cells; Homo sapiens, 72 h): 0.5 µM

inhibition at 1 µM (Pim-1): > 95%
Compound: COC1CN(c2nc3c([N+](=O)[O-])c(Br)c(Br)cc3n2C(C)C)CC1N (stereo not drawn) [Example 1EB]

IC50 (HepG2 cells; 72 hours): 3.7 µM
DYRK1A % INH (1 μM) (DYRK1): 55%
Flt3wt % INH (1 μM) (FLT3wt): 18%
Pim-1 % INH (1 μM) (Pim-1): >95%
IC50 (MV4-11 cells; 72 hours): 2.0 µM
Compound: N[C@@H]1CCN(c2nc3c([N+](=O)[O-])c(Br)c(Br)cc3n2CCCO)C1 [Example 1DF]

IC50 (HepG2 cells; 72 hours): 0.9 µM
DYRK1A % INH (1 μM) (DYRK1): 38%
Flt3wt % INH (1 μM) (FLT3wt): 55%
Pim-1 % INH (1 μM) (Pim-1): >95%
IC50 (MV4-11 cells; 72 hours): 0.5 µM
Compound: CC(C)n1c(N2CCNCC2CO)nc2c([N+](=O)[O-])c(Br)c(Br)cc21 (stereo not drawn) [Example 1DN]
IC50 (HEL92 cells; 72 hours): 4.5 µM

IC50 (HepG2 cells; Homo sapiens, HepG2, 72 h): 1.2 µM
inhibition at 1 µM (DYRK1): 31%
inhibition at 1 µM (Pim-1): > 95%
IC50 (MV4-11 cells; Homo sapiens, MV4-11, 72 h): 0.7 µM
Compound: CC(C)n1c(N2CCNC(CO)C2)nc2c([N+](=O)[O-])c(Br)c(Br)cc21 (stereo not drawn) [Example 22AD, {4-[5,6-dibromo-4-nitro-1-(propan-2-yl)-1H-1,3-benzodiazol-2-yl]piperazin-2-yl}methanol]
IC50 (HEL92 cells; Homo sapiens, 72 h): 6.2 µM

IC50 (HepG2 cells; Homo sapiens, HepG2, 72 h): 2.1 µM
inhibition at 1 µM (DYRK1): > 95%
inhibition at 1 µM (Pim-1): 95%
IC50 (MV4-11 cells; Homo sapiens, MV4-11, 72 h): 0.6 µM
Compound: O=[N+]([O-])c1c(Br)c(Br)cc2c1nc(N1CCNCC1)n2CCO [Example 1DJ]
IC50 (HEL92 cells; Homo sapiens, 72 h): 6.7 µM

inhibition at 1 µM (Pim-1): > 95%
Compound: CC[C@H]1CNCCN1c1nc2c([N+](=O)[O-])c(Br)c(Br)cc2n1C(C)C [Example 1EA]

IC50 (HepG2 cells; 72 hours): 0.4 µM
DYRK1A % INH (1 μM) (DYRK1): 92%
Pim-1 % INH (1 μM) (Pim-1): >95%
IC50 (MV4-11 cells; 72 hours): 0.2 µM
Compound: O=[N+]([O-])c1c(Br)c(Br)cc2c1nc(N1CCNCC1)n2C1CCC1 [Example 1DG]
IC50 (HEL92 cells; 72 hours): 1.8 µM

IC50 (HepG2 cells; 72 hours): 2.2 µM
Pim-1 % INH (1 μM) (Pim-1): 93%
IC50 (MV4-11 cells; 72 hours): 4.3 µM
Compound: CCn1c(NC2CCC(N)CC2)nc2c([N+](=O)[O-])c(Br)c(Br)cc21 (stereo not drawn) [Example 1DO]

inhibition at 1 µM (Pim-1): > 95%
Compound: CCn1c(N2CCC[C@H](NC)C2)nc2c([N+](=O)[O-])c(Br)c(Br)cc21 [Example 1DZ]

inhibition at 1 µM (Pim-1): > 95%
Compound: N#Cc1c(Br)c(Br)cc2c1nc(N1CC[C@@H](N)C1)n2[C@H]1CCNC1 [Example 8G, 2-[(3R)-3-aminopyrrolidin-1-yl]-5,6-dibromo-1-[(3S)-pyrrolidin-3-yl]-1H-1,3-benzodiazole-4-carbonitrile]

inhibition at 1 µM (Pim-1): 56%
Compound: O=[N+]([O-])c1c(Br)c(Br)cc2c1nc(C1CCNCC1)n2CC1CCNCC1 [Example 27A, 5,6-dibromo-4-nitro-2-(piperidin-4-yl)-1-(piperidin-4-ylmethyl)-1H-1,3-benzodiazole]

IC50 (HepG2 cells; 72 hours): 5.7 µM
DYRK1A % INH (1 μM) (DYRK1): 25%
Pim-1 % INH (1 μM) (Pim-1): >95%
IC50 (MV4-11 cells; 72 hours): 5.5 µM
Compound: CC(C)n1c(NC2CCNCC2)nc2c([N+](=O)[O-])c(Br)c(Br)cc21 [Example 1DK]
IC50 (HEL92 cells; 72 hours): 5.8 µM

inhibition at 1 µM (Pim-1): 81%
IC50 (MV4-11 cells; Homo sapiens, MV4-11, 72 h): 1 µM
Compound: Cc1c(Br)cc2c(nc(N3CCNCC3)n2C(C)C)c1[N+](=O)[O-] [Example 4A, 5-methyl-6-bromo-4-nitro-2-(piperazin-1-yl)-1-(propan-2-yl)-1H-1,3-benzodiazole]
IC50 (HEL92 cells; Homo sapiens, 72 h): 8.7 µM

Further lines, the compound ahead of its results:

Compound: CC(C)n1c(NC2CNC2)nc2c([N+](=O)[O-])c(Br)c(Br)cc21 [Example 1CR]
IC50 (HepG2 cells; 72 hours): 1.9 µM
DYRK1A % INH (1 μM) (DYRK1): 70%
IC50 (HEL92 cells; 72 hours): 8.7 µM
Flt3wt % INH (1 μM) (FLT3wt): 44%
Pim-1 % INH (1 μM) (Pim-1): >95%
IC50 (MV4-11 cells; 72 hours): 1.1 µM

Compound: CCn1c(N2CCNCC2C)nc2c([N+](=O)[O-])c(Cl)c(Cl)cc21 (stereo not drawn) [Example 1DA]
IC50 (HepG2 cells; 72 hours): 0.9 µM
DYRK1A % INH (1 μM) (DYRK1): 36%
IC50 (HEL92 cells; 72 hours): 1.1 µM
Pim-1 % INH (1 μM) (Pim-1): 91%
IC50 (MV4-11 cells; 72 hours): 0.5 µM

Compound: CC(C)n1c(N2CC[C@@H](N)C2)nc2c([N+](=O)[O-])c(Br)c(F)cc21 [Example 1CY]
IC50 (HepG2 cells; 72 hours): 2.8 µM
IC50 (HEL92 cells; 72 hours): 8.9 µM
Flt3wt % INH (1 μM) (FLT3wt): <5%
Pim-1 % INH (1 μM) (Pim-1): >95%
IC50 (MV4-11 cells; 72 hours): 2.1 µM

Compound: CC(C)n1c(N2CC(N)C2)nc2c([N+](=O)[O-])c(Br)c(Br)cc21 [Example 1CX]
IC50 (HepG2 cells; Homo sapiens, HepG2, 72 h): 3.1 µM
inhibition at 1 µM (DYRK1): 73%
IC50 (HEL92 cells; Homo sapiens, 72 h): 4.1 µM
inhibition at 1 µM (FLT3wt): 44%
inhibition at 1 µM (Pim-1): > 95%
IC50 (MV4-11 cells; Homo sapiens, MV4-11, 72 h): 1.2 µM

Compound: CC(C)n1c(N2CCNCC2)nc2c([N+](=O)[O-])c(Br)c(F)cc21 [Example 1CL]
IC50 (HepG2 cells; 72 hours): 1.5 µM
DYRK1A % INH (1 μM) (DYRK1): 45%
IC50 (HEL92 cells; 72 hours): 2.4 µM
Pim-1 % INH (1 μM) (Pim-1): 82%
IC50 (MV4-11 cells; 72 hours): 1.0 µM

Compound: O=[N+]([O-])c1c(Br)c(Br)cc2c1nc(N[C@@H]1CCNC1)n2CC1CC1 [Example 1CJ]
IC50 (HepG2 cells; 72 hours): 5.3 µM
IC50 (HEL92 cells; 72 hours): 5.5 µM
IC50 (MV4-11 cells; 72 hours): 5.5 µM

Compound: CCn1c(N2CCNCC2)nc2c([N+](=O)[O-])c(Cl)c(Cl)cc21 [Example 1CN]
IC50 (HepG2 cells; 72 hours): 4.5 µM
DYRK1A % INH (1 μM) (DYRK1): 27%
IC50 (HEL92 cells; 72 hours): 9.4 µM
Pim-1 % INH (1 μM) (Pim-1): 76%
IC50 (MV4-11 cells; 72 hours): 3.3 µM

Compound: CC(C)n1c(N[C@@H]2CCCNC2)nc2c([N+](=O)[O-])c(Br)c(Br)cc21 [Example 1CA]
IC50 (HepG2 cells; 72 hours): 1.8 µM
DYRK1A % INH (1 μM) (DYRK1): 64%
IC50 (HEL92 cells; 72 hours): 9.7 µM
Pim-1 % INH (1 μM) (Pim-1): 77%
IC50 (MV4-11 cells; 72 hours): 2.6 µM

Compound: 5-bromo-6-methyl-4-nitro-2-(piperazin-1-yl)-1-(propan-2-yl)-1H-1,3-benzodiazole [Example 4B]
IC50 (HepG2 cells; 72 hours): 1.8 µM
DYRK1A % INH (1 μM) (DYRK1): 51%
IC50 (HEL92 cells; 72 hours): 4.1 µM
Pim-1 % INH (1 μM) (Pim-1): >95%
IC50 (MV4-11 cells; 72 hours): 1.2 µM

Compound: CC(C)n1c(N[C@@H]2CCNC2)nc2c([N+](=O)[O-])c(Br)c(Br)cc21 [Example 1BF]
IC50 (HepG2 cells; 72 hours): 2.3 µM
IC50 (HEL92 cells; 72 hours): 7.6 µM
IC50 (MV4-11 cells; 72 hours): 2.0 µM
